Like-named read-outs stand apart in the source and are kept apart here.
Legend:
[1] = test system: Myzus persicae; assay: Myzus persicae - spray test (MYZUPE), comparison with prior art; type: in vivo; settings: for Emax at 4 g/ha / Emax at 20 g/ha / Emax at 100 g/ha / Emax at 500 g/ha: Myzus persicae, read-out: % efficacy
Experimental: Myzus persicae—Spray Test (MYZUPE)
(§1) To produce a suitable active ingredient formulation, 1 part by weight of active ingredient is dissolved with the specified parts by weight of solvent and made up to the desired concentration with water containing an emulsifier concentration of 1000 ppm. To produce further test concentrations, the formulation is diluted with emulsifier-containing water.
(§2) Discs of Chinese cabbage leaves (Brassica pekinensis) infested by all stages of the green peach aphid (Myzus persicae) are sprayed with an active ingredient formulation of the desired concentration.
(§3) After the desired period of time, the efficacy in % is determined. 100% means that all the aphids have been killed; 0% means that no aphids have been killed.

[2] = test system: Myzus persicae; assay: Myzus persicae - oral test (MYZUPE O), comparison with prior art; type: in vivo; settings: 5 dat; for Emax at 0.8 ppm / Emax at 4 ppm: Myzus persicae, po, 120 h, read-out: % efficacy
Experimental: Myzus persicae—Oral Test (MYZUPE O)
(§4) To produce a suitable active ingredient formulation, 1 part by weight of active ingredient is dissolved with the specified parts by weight of solvent and made up to the desired concentration with water.
(§5) 50 μl of the active ingredient formulation are transferred into microtitre plates and made up to a final volume of 200 μl with 150 μl of IPL41 insect medium (33%+15% sugar). Subsequently, the plates are sealed with parafilm, which a mixed population of green peach aphids (Myzus persicae) within a second microtitre plate is able to puncture and imbibe the solution.
as §3

[3] = test system: Myzus persicae; assay: Myzus persicae - oral test; type: in vivo; settings: 4 ppm, oral, after 5 days; for pest or weed control at 4 ppm: Myzus persicae, 120 h, read-out: efficacy (aphids killed)
Experimental: as §4, §5
(§6) After 5 days, the efficacy in % is determined. 100% means that all the aphids have been killed; 0% means that no aphids have been killed.

[4] = test system: Myzus persicae; assay: Myzus persicae - spray test; type: in vivo; settings: 500 g/ha, Chinese cabbage leaf discs, after 5 days; for pest or weed control at 500 g/ha: Myzus persicae, foliar, 120 h, read-out: efficacy (aphids killed)
Experimental: Myzus persicae—Spray Test
as §1, §2, §6

[5] = test system: Aphis gossypii; assay: Aphis gossypii - spray test (APHIGO S), cotton plants; type: in vivo; settings: 144 h, 6 dat, read-out: % efficacy
Experimental: Aphis gossypii—Spray Test (APHIGO S)
as §1, with “water. If the addition of ammonium salts or/and penetrants is required, these are each added in a concentration of 1000 ppm to the formulation solution.” for “water.”
Cotton plants (Gossypium hirsutum) heavily infested by the cotton aphid (Aphis gossypii) are sprayed with an active ingredient formulation of the desired concentration.
After the desired time, the kill in % is determined. 100% means that all the aphids have been killed; 0% means that no aphids have been killed.

[6] = log P by HPLC on reversed-phase (C18) columns, OECD Guideline 117; type: physicochemical; settings: for chromatographic logP: reversed-phase (C18) HPLC column
[7] = test system: Myzus persicae; assay: Myzus persicae - spray test (MYZUPE S), bell pepper plants; type: in vivo; settings: 6 dat; for Emax at 0.16 ppm / Emax at 0.8 ppm: Myzus persicae, 144 h, read-out: % efficacy
Experimental: Myzus persicae—Spray Test (MYZUPE S)
as §1, with “water. If the addition of ammonium salts or/and penetrants is required, these are each added in a concentration of 1000 ppm to the formulation solution.” for “water.”
Bell pepper plants (Capsicum annuum) severely infested with the green peach aphid (Myzus persicae) are treated by spraying with the active ingredient formulation in the desired concentration.
After the desired time, the kill in % is determined. 100% means that all the animals have been killed; 0% means that no animals have been killed.

[8] = test system: Myzus persicae; assay: Myzus persicae - drench test (MYZUPE D), savoy cabbage; type: in vivo; settings: 10 dat; for Emax at 0.16 ppm / Emax at 0.8 ppm: Myzus persicae, soil, 240 h, read-out: % efficacy
Experimental: Myzus persicae—Drench Test (MYZUPE D)
To produce a suitable active ingredient formulation, 1 part by weight of active ingredient is mixed with the specified amounts of solvent and emulsifier, and the concentrate is diluted with water to the desired concentration, it being necessary to include the volume of soil which is drenched in the calculation. It should be ensured that a concentration of 40 ppm of emulsifier in the soil is not exceeded. To produce further test concentrations, water is used for dilution.
Savoy cabbage (Brassica oleracea) in pots with soil and infested by all stages of the green peach aphid (Myzus persicae) is watered with an active ingredient formulation of the desired concentration.
as §3

[9] = 120 h, 20 g/ha (g of ai/ha), 5 dat
[10] = 120 h, 100 g/ha (g of ai/ha), 5 dat
[11] = HPLC RP C18, acidic range pH 2.7, 0.1% formic acid/acetonitrile, read-out: logP[a]
[12] = HPLC RP C18, neutral range pH 7.8, ammonium hydrogencarbonate/acetonitrile, read-out: logP[n]

SMILES	Emax at 20 g/ha [1, 9]	Emax at 100 g/ha [1, 10]	Emax at 0.8 ppm ([2]; 0.8 ppm)	Emax at 4 ppm ([2]; 4 ppm)	Emax at 0.16 ppm [5]	Emax at 0.8 ppm [5]	Emax at 0.16 ppm ([7]; 0.16 ppm)	Emax at 0.8 ppm ([7]; 0.8 ppm)	Emax at 0.16 ppm ([8]; 0.16 ppm)	Emax at 0.8 ppm ([8]; 0.8 ppm)	other results
Cc1nc(C(=O)Nc2cccnc2)c[nH]1 [WO 2011/009804 (Ex. 14), reference compound]	0%	0%	0%	0%							Emax at 4 g/ha ([1]; 120 h, 4 g/ha (g of ai/ha), 5 dat): 0%
CCC1=NOC(c2ncc(C(=O)N(C)c3cccnc3)n2C)C1 (stereo not drawn) [Example I-1-2]	90%	70%	100%	100%	98%	98%	100%	100%	98%	100%	pest or weed control at 4 ppm [3]: 100%; pest or weed control at 500 g/ha [4]: 90%; chromatographic logP [6, 11]: 0.71; chromatographic logP [6, 12]: 1.09; Emax at 500 g/ha ([1]; 120 h, 500 g/ha, 5 dat): 90%
CCc1ncc(C(=O)N(C)c2cccnc2)n1C [reference compound]					0%	0%	0%		0%		
Cc1ncc(C(=O)N(C)c2cccnc2)n1C [reference compound]					0%	0%	0%		30%		
CN(C(=O)c1cnc(-c2cc(-c3ccccc3)no2)n1C)c1cccnc1 [reference compound]					0%	0%	0%	0%	0%	0%	Emax at 4 g/ha ([1]; 144 h, 4 g/ha, 6 dat): 0%; Emax at 20 g/ha ([1]; 144 h, 20 g/ha, 6 dat): 0%
CN(C(=O)c1cnc(C2CC=NO2)n1C)c1cccnc1 (stereo not drawn) [Example I-1-30]	70%	70%	100%	90%		80%	95%	100%	95%	95%	pest or weed control at 4 ppm [3]: 90%; pest or weed control at 500 g/ha [4]: 90%; chromatographic logP [6, 11]: 0.1; chromatographic logP [6, 12]: 0.57; Emax at 500 g/ha ([1]; 120 h, 500 g/ha, 5 dat): 90%
O=C(Nc1cccnc1)c1c[nH]cn1 [WO 2011/009804 (Ex. 13), reference compound]			0%	0%							Emax at 4 g/ha ([1]; 144 h, 4 g/ha, 6 dat): 0%; Emax at 20 g/ha ([1]; 144 h, 20 g/ha, 6 dat): 0%; Emax at 100 g/ha ([1]; 144 h, 100 g/ha, 6 dat): 0%
CN(C(=O)c1cnc(C2CC(c3ccc(F)cc3)=NO2)n1C)c1cccnc1 (stereo not drawn) [Example I-1-22]											efficacy (aphids killed) [3]: 100%; efficacy (aphids killed) [4]: 100%; logP[a] ([6]; pH 2.7): 1.55; logP[n] ([6]; pH 7.8): 1.82; % efficacy ([7]; 0.16 ppm): 90%; % efficacy ([7]; 0.8 ppm): 99%; % efficacy ([1]; 4 g/ha (g of ai/ha), 5 dat): 90%; % efficacy ([1]; 20 g/ha (g of ai/ha), 5 dat): 100%; % efficacy ([1]; 100 g/ha (g of ai/ha), 5 dat): 100%; % efficacy ([1]; 500 g/ha, 5 dat): 100%; % efficacy ([8]; 0.16 ppm): 90%; % efficacy ([8]; 0.8 ppm): 95%; % efficacy ([2]; 0.8 ppm): 90%; % efficacy ([2]; 4 ppm): 100%

From patent US10660333B2, “Substituted 2-heterocyclylimidazolylcarboxamides as pesticides” (BAYER CROPSCIENCE AKTIENGESELLSCHAFT, priority 2016, dated 2020)
